Calls of active or inactive are those of the source. The rule behind the calls is not given here.
Assays:
[1] = molecular target: Histone deacetylase 2 (Homo sapiens, UniProt Q92769); test: Inhibition of human recombinant HDAC2 using Boc-Lys(Ac)-AMC as substrate preincubated for 5 mins followed by substrate addition and measured after 90 mins by fluorescence based microplate reader analysis
[2] = molecular target: T1, Protein deacetylase HDAC6 (Homo sapiens, UniProt Q9UBN7); test: Inhibition of human recombinant HDAC6 using Boc-Lys(Ac)-AMC as substrate preincubated for 5 mins followed by substrate addition and measured after 90 mins by fluorescence based microplate reader analysis
T1 sequence (Q9UBN7 whole entry): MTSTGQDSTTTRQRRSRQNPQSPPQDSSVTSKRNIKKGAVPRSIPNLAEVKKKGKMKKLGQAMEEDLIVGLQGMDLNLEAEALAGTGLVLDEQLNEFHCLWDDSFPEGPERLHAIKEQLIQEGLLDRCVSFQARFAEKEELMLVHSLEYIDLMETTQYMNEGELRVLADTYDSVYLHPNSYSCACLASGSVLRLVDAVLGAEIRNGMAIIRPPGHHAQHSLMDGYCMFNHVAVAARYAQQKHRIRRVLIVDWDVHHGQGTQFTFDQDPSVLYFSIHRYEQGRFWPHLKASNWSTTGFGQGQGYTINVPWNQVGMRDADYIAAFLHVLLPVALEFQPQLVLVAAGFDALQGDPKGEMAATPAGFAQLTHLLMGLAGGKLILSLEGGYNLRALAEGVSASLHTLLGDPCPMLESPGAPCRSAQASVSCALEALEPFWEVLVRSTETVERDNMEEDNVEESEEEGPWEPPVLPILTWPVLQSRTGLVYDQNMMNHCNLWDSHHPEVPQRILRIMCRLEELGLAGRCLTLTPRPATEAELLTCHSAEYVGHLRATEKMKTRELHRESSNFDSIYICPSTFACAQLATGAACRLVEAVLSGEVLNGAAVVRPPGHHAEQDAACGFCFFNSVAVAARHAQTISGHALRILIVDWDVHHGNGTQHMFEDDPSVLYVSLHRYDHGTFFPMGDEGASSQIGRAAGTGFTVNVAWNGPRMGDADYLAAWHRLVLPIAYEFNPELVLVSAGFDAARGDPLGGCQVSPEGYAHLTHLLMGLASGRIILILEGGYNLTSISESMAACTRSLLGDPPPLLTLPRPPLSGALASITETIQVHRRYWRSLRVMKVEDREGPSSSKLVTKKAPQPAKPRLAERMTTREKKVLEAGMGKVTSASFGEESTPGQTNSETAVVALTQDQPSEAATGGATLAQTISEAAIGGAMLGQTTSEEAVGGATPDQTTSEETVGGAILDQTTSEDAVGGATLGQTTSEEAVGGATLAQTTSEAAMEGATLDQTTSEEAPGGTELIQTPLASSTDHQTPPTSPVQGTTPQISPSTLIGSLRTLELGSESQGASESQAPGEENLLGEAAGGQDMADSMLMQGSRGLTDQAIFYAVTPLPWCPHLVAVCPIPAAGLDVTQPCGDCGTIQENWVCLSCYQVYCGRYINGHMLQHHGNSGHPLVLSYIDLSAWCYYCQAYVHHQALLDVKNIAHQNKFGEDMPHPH

[3] = molecular target: T2, Histone deacetylase 8 (Homo sapiens, UniProt Q9BY41); test: Inhibition of human recombinant HDAC8 using Boc-Lys-(Tfa)-AMC as substrate preincubated for 5 mins followed by substrate addition and measured after 90 mins by fluorescence based microplate reader analysis
T2 sequence (Q9BY41 whole entry): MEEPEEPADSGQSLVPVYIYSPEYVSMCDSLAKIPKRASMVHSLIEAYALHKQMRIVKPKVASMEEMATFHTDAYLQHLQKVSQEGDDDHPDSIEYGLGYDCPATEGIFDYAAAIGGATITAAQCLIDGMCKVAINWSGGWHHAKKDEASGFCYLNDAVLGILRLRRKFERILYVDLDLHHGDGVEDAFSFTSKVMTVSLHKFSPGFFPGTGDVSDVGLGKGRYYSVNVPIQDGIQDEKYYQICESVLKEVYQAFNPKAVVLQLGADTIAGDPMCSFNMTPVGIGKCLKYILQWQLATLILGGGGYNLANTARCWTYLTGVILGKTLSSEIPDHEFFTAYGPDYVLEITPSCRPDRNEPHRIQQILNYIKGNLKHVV

[4] = system: THP-1; test: Inhibition of Class IIa/8 HDAC in human THP-1 cells at 100 uM preincubated for 18 hrs followed by substrate addition and measured after 3 hrs by fluorescence based microplate reader assay relative to control; type: cell-based; settings: time 21.0 hrs, values are per cent of control
[5] = system: THP-1; test: Inhibition of Class I/IIb HDAC in human THP-1 cells at 100 uM preincubated for 18 hrs followed by substrate addition and measured after 3 hrs by fluorescence based microplate reader assay relative to control; type: cell-based; settings: time 21.0 hrs
[6] = Inhibition of Class I/IIb HDAC in human THP-1 cells preincubated for 18 hrs followed by substrate addition and measured after 3 hrs by fluorescence based microplate reader assay; type: cell-based
[7] = Inhibition of Class IIa/8 HDAC in human THP-1 cells preincubated for 18 hrs followed by substrate addition and measured after 3 hrs by fluorescence based microplate reader assay; type: cell-based
[8] = molecular target: Histone deacetylase 3 (Homo sapiens, UniProt O15379); test: Inhibition of HDAC3 (unknown origin)
[9] = molecular target: Histone deacetylase 5 (Homo sapiens, UniProt Q9UQL6); test: Inhibition of HDAC5 (unknown origin)
[10] = molecular target: T3, Histone deacetylase 11 (Homo sapiens, UniProt Q96DB2); test: Inhibition of HDAC11 (unknown origin)
T3 sequence (Q96DB2 whole entry): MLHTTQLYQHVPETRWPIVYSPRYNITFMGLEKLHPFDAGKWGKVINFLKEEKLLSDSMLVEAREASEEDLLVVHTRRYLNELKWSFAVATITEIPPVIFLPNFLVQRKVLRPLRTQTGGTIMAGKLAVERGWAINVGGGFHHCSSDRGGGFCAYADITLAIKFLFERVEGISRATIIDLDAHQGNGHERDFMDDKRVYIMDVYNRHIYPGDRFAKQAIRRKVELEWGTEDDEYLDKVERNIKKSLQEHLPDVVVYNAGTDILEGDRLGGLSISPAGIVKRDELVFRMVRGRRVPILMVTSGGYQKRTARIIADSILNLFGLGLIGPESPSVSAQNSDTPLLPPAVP

[11] = system: THP-1; test: Antiproliferative activity against human THP-1 cells assessed as reduction in cell viability at 100 uM incubated for 72 hrs by MTT assay relative to control; type: functional
[12] = system: THP-1; test: Induction of apoptosis in human THP-1 cells assessed as subG1 population at 5 uM incubated for 48 hrs by Propidium iodide staining based flow cytometric analysis; type: functional, cell-based
[13] = system: THP-1; test: Synergistic induction of apoptosis in human THP-1 cells assessed as increase in subG1 population at 5 uM incubated for 48 hrs in the presence of 7.9 nM bortezomib by Propidium iodide staining based flow cytometric analysis; type: functional, cell-based
[14] = system: THP-1; test: Induction of apoptosis in human THP-1 cells assessed as caspase3/7 activation at 5 uM incubated for 48 hrs by Hoechst 33342 staining based assay; type: functional, cell-based
[15] = system: THP-1; test: Synergistic induction of apoptosis in human THP-1 cells assessed as increase in caspase3/7 activation at 5 uM incubated for 48 hrs in the presence of 7.9 nM bortezomib by Hoechst 33342 staining based assay; type: functional, cell-based
[16] = system: CAL-27; test: Antiproliferative activity against human CAL-27 cells overexpressing HDAC4 assessed as inhibition of cell growth incubated for 72 hrs by MTT assay; type: functional, cell-based; settings: CAL-27, 72 h
[17] = system: CAL-27; test: Antiproliferative activity against human CAL-27 cells without HDAC4 expression assessed as inhibition of cell growth incubated for 72 hrs by MTT assay; type: functional, cell-based; settings: CAL-27, 72 h
[18] = system: CAL-27; test: Antitumor activity against human CAL-27 cells overexpressing HDAC4 implanted in chick embryo chorio allantoic membrane assessed as reduction in cell proliferation at 5 uM; type: functional, cell-based
[19] = system: CAL-27; test: Antitumor activity against human CAL-27 cells without HDAC4 expression xenografted in chick embryo chorio allantoic membrane assessed as reduction in cell proliferation at 5 uM; type: functional, cell-based
[20] = system: THP-1; test: Synergistic effect on p21 protein expression in human THP-1 cells assessed as increase in p21 protein expression level at 5 uM incubated for 24 hrs in the presence of 7.9 nM bortezomib by Western blot analysis; type: functional, cell-based
[21] = system: THP-1; test: Effect on p21 protein expression in human THP-1 cells assessed as increase in p21 protein expression level at 5 uM incubated for 24 hrs by Western blot analysis; type: functional, cell-based
[22] = molecular target: Histone deacetylase 4 (Homo sapiens, UniProt P56524); test: Inhibition of GST-tagged HDAC4 (unknown origin)
[23] = system: THP-1; test: cells; settings: Homo sapiens, THP-1, 72 h
Description: Antiproliferative activity against human THP-1 cells assessed as inhibition of cell growth incubated for 72 hrs by MTT assay

[24] = Effect on p21 mRNA expression in human THP-1 cells assessed as fold increase in p21 mRNA expression at 7.9 uM incubated for 24 hrs by RT-PCR analysis; type: functional
[25] = system: THP-1; test: Effect on p21 protein expression in human THP-1 cells assessed as increase in p21 protein expression level at 7.9 uM incubated for 24 hrs by Western blot analysis; type: functional, cell-based
[26] = molecular target: Histone deacetylase 1 (Homo sapiens, UniProt Q13547); test: Inhibition of HDAC1 (unknown origin)
[27] = system: THP-1; test: Induction of apoptosis in human THP-1 cells assessed as subG1 population at 5.7 uM incubated for 48 hrs by Propidium iodide staining based flow cytometric analysis; type: functional, cell-based
[28] = system: THP-1; test: Synergistic induction of apoptosis in human THP-1 cells assessed as increase in subG1 population at 5.7 uM incubated for 48 hrs in the presence of 7.9 nM bortezomib by Propidium iodide staining based flow cytometric analysis; type: functional, cell-based
[29] = system: THP-1; test: Induction of apoptosis in human THP-1 cells assessed as caspase3/7 activation at 5.7 uM incubated for 48 hrs by Hoechst 33342 staining based assay; type: functional, cell-based
[30] = system: THP-1; test: Synergistic induction of apoptosis in human THP-1 cells assessed as increase in caspase3/7 activation at 5.7 uM incubated for 48 hrs in the presence of 7.9 nM bortezomib by Hoechst 33342 staining based assay; type: functional, cell-based

Chain of Histone deacetylase 5 (Q9UQL6 whole entry): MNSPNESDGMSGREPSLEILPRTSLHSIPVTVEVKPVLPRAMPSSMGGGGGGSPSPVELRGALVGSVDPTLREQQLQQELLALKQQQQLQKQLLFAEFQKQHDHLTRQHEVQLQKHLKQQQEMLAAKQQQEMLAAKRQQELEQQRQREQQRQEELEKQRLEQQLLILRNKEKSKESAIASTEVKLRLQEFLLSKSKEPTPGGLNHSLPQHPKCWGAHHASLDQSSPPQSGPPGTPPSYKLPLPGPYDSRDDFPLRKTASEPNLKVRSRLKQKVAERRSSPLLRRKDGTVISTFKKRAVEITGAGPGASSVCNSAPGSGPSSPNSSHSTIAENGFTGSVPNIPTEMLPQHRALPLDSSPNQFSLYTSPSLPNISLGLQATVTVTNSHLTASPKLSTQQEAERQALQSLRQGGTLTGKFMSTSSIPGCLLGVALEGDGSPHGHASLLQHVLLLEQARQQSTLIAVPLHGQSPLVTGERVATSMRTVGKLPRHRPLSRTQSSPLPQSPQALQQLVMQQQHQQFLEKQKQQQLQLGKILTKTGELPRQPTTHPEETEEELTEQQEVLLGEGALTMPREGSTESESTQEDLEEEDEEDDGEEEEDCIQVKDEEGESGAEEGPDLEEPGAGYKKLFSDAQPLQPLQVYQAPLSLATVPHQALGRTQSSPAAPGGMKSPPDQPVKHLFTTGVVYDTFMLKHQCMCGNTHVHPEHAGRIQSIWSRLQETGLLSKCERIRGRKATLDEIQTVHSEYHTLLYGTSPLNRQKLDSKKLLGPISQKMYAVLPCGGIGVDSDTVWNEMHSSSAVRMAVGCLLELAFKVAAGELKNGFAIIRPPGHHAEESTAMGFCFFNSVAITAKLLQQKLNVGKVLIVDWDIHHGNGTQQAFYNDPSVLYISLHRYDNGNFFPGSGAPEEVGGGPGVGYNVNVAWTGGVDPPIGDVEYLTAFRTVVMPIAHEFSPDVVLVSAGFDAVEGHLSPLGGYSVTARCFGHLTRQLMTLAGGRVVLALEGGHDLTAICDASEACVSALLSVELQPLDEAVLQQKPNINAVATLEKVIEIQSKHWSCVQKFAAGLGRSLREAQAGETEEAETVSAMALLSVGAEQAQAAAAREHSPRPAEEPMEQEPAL
Chain of Histone deacetylase 3 (O15379 whole entry): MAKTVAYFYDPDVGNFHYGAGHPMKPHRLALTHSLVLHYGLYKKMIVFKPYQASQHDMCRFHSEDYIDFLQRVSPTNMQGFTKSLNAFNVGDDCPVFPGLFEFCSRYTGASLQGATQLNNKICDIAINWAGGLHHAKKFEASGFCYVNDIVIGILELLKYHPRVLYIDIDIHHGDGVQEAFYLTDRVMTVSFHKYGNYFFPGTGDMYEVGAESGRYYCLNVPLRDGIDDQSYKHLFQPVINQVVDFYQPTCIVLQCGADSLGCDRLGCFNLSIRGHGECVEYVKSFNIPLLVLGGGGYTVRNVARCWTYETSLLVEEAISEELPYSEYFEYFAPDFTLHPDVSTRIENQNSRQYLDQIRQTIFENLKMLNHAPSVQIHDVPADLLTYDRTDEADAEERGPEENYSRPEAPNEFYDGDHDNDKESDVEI
Chain of Histone deacetylase 2 (Q92769 whole entry): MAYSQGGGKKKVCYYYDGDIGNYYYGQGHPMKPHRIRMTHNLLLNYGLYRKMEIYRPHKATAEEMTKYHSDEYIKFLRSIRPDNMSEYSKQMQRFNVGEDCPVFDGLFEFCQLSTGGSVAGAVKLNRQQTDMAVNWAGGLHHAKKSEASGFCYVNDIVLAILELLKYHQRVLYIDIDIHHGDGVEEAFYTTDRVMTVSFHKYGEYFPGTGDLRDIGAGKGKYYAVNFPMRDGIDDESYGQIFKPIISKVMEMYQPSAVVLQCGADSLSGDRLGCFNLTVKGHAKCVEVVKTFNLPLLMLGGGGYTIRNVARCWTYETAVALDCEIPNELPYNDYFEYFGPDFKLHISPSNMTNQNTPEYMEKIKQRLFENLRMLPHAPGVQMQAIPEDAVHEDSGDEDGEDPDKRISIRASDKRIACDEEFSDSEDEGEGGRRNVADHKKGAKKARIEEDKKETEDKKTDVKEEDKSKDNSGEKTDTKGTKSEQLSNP
Chain of Histone deacetylase 1 (Q13547 whole entry): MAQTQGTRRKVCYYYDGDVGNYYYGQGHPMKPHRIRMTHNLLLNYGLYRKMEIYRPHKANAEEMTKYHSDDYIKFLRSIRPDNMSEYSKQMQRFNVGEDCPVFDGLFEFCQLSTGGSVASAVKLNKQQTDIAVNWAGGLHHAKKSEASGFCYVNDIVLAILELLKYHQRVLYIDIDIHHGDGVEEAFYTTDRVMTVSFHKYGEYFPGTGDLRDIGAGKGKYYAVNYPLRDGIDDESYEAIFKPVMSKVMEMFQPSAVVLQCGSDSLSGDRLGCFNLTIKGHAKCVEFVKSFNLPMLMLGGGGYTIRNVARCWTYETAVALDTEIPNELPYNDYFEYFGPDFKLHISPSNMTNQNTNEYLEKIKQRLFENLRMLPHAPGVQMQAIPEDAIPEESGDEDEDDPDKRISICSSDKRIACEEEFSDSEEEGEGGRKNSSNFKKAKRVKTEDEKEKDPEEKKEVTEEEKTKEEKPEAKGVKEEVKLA
Chain of Histone deacetylase 4 (P56524 whole entry): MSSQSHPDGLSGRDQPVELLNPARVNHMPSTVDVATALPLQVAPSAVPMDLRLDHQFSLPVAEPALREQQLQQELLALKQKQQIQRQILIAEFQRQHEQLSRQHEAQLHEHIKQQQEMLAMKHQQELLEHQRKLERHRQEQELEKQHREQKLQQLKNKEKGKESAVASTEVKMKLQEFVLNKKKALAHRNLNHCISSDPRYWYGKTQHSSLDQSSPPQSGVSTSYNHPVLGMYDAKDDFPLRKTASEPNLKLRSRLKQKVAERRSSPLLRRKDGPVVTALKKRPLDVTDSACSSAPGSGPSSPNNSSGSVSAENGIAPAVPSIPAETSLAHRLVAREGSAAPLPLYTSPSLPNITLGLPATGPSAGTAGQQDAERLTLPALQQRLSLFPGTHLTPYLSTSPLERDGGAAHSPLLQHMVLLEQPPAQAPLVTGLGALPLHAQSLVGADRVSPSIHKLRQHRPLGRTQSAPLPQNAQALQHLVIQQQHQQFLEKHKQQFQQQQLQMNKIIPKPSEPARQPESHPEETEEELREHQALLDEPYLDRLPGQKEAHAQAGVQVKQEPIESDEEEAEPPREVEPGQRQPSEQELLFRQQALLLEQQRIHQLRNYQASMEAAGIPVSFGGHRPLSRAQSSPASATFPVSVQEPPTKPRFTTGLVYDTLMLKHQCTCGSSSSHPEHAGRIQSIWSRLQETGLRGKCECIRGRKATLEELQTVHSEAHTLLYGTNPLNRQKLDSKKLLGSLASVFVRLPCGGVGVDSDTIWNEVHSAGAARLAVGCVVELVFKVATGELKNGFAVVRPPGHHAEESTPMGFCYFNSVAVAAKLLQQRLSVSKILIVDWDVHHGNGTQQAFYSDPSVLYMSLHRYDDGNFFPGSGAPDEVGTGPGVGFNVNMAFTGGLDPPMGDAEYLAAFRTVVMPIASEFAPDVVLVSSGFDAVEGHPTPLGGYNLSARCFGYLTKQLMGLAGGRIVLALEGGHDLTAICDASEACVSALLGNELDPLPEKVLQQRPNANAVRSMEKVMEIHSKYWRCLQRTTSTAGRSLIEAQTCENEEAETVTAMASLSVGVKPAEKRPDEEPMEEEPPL

With `CCN(CC)CCNC(=O)c1ccc(-c2noc(C(F)(F)F)n2)cc1` the IC50 [1] was 6.13 µM, the IC50 [2] was 5.79 µM and the IC50 [3] was 4.26 µM. It also gave a residual activity [4] of 100%, an inhibition [5] of 93% and an IC50 [6] of 10.9 µM. For the same molecule, the IC50 [7] was 77 nM, the IC50 [8] was 3.82 µM and the IC50 [9] was 19 nM. For the same molecule, the IC50 [10] was 66 µM, the Activity [11] was 80% and the Activity [12] was “inactive”. For the same molecule, the Activity [13] was “Active”, the Activity [14] was “inactive” and the Activity [15] was “Active”. For the same molecule, the IC50 [16] was 8.63 µM, the IC50 [17] was 22.5 µM and the Activity [18] was “Active”. For the same molecule, the Activity [19] was “Active”, the Activity [20] was “Active” and the Activity [21] was “Active”. It also gave an IC50 [22] of 17 nM and an IC50 [23] of 9.24 µM.
For `CC(C)C[C@H](NC(=O)[C@H](Cc1ccccc1)NC(=O)c1cnccn1)B(O)O` [BORTEZOMIB], the IC50 [16] was 4.73 µM, the IC50 [17] was 7.6 µM and the “fold change (FC)” value [24] was 2.5. The Activity [25] was “Active” and the IC50 [23] was 0.00628 µM.
In the case of `O=C(NCC1(c2nc(-c3ccccc3)cs2)CCOCC1)c1cccc(-c2noc(C(F)(F)F)n2)c1`, the Activity [11] is reported as 100%, the Activity [12] is reported as “inactive” and the Activity [13] is reported as “Active”. For the same molecule, the Activity [14] was “inactive”, the Activity [15] was “Active” and the Activity [20] was “Active”. For the same molecule, the Activity [21] was “Active”.
`O=C(NOCCN1CCCCC1)c1ccc(-c2noc(C(F)(F)F)n2)cc1` gave a residual activity [4] of 101%, an inhibition [5] of 70% and an IC50 [6] of 64.2 µM. The IC50 [7] was 590 nM, the IC50 [26] was 20.7 µM and the IC50 [8] was 15 µM. The IC50 [9] was 268 nM, the IC50 [10] was > 100 µM and the Activity [11] was 45%. The Activity [27] was “inactive”, the Activity [28] was “Active” and the Activity [29] was “inactive”. For the same molecule, the Activity [30] was “Active”, the IC50 [16] was 69.8 µM and the IC50 [17] was 77.7 µM. For the same molecule, the IC50 [23] was ~100 µM.

From ChEMBL document CHEMBL5537119 (Eur J Med Chem, 2024)
